13 molecules from PubChem BioAssay (NCI) can be followed below.

Among the test systems are SN12C renal; HOP-92 NSCLC; OVCAR-8 ovarian; M14 melanoma; MOLT-4 leukemia; NCI-H23 lung; TK-10 renal; SF-268 CNS; NCI-H226 lung; MALME-3M melanoma.
What all share (test): DTP human tumour cell line panel, 48 h

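Cells were grown in 96-well plates and exposed to each compound for 48 hours at five concentrations; endpoints were interpolated linearly between bracketing concentrations, or set to the highest concentration if not reached. Here, GI50 denotes the concentration required for 50% inhibition of growth. The concentration for full growth arrest is given as TGI.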

One may read the TGI as the concentration giving total growth inhibition. A high value points to less potent growth arrest. Usually GI50 stands for the concentration that inhibits growth by half.

Consider `Cn1nc(-c2ccccc2)c(C(=O)/C=C/c2ccccc2)c(N2CCOCC2)c1=O`, for which the TGI was 59.2 µM in the assay on SN12C renal; 27.8 µM in the assay with HOP-92 NSCLC; over 100 µM in the assay on OVCAR-8 ovarian; 52.6 µM with M14 melanoma; 49.4 µM in the assay with MOLT-4 leukemia; 45.1 µM with NCI-H23 lung. Moreover, the TGI was found to be 89.4 µM with TK-10 renal and 32.6 µM with SF-268 CNS.
For the molecule `CO/N=C(\C)c1ccc(Nc2cc(-c3ccccc3)nc3c(O)cccc23)cc1`, the GI50 in the assay with SN12C renal is 16 µM; in the assay with NCI-H226 lung, 22.4 µM; in the assay with HOP-92 NSCLC, 17.5 µM; with OVCAR-8 ovarian it was 13.6 µM; in the assay with M14 melanoma it was 14.6 µM; in the assay with NCI-H23 lung it was 14.9 µM. The TGI with SN12C renal came to 30.6 µM; in the assay with NCI-H226 lung, 78.4 µM; with HOP-92 NSCLC, 33.7 µM; with OVCAR-8 ovarian it was 33.9 µM; in the assay with M14 melanoma, 29.6 µM; with NCI-H23 lung it was 30.6 µM.
`CC(=O)n1c2ccccc2c2nc3nc(Oc4ccc(C)cc4)c4ccccc4c3cc21`: the concentration for total growth inhibition (TGI) with SN12C renal, with NCI-H226 lung, in the assay with MALME-3M melanoma, in the assay on OVCAR-8 ovarian, in the assay with M14 melanoma and in the assay on MOLT-4 leukemia was over 100 µM in each case. Moreover, the results for the concentration for total growth inhibition (TGI) in the assay with NCI-H23 lung and in the assay on SF-268 CNS were 78.7 µM and over 100 µM, respectively.
With `CN(CCOc1ccc(C#N)cc1)CCOc1ccc(C#N)cc1`, the GI50 in the assay with SN12C renal was over 100 µM; in the assay on NCI-H226 lung it was over 100 µM; with MALME-3M melanoma it was over 100 µM; in the assay with OVCAR-8 ovarian it was 29 µM; in the assay with M14 melanoma, 78.9 µM; in the assay with MOLT-4 leukemia, 15.1 µM. In addition, the GI50 in the assay on NCI-H23 lung was 22.6 µM; in the assay with TK-10 renal it was 28.7 µM; in the assay with SF-268 CNS, over 100 µM. For the same molecule, the TGI in the assay on SN12C renal was over 100 µM; with NCI-H226 lung it was over 100 µM; with MALME-3M melanoma, over 100 µM; with OVCAR-8 ovarian it was over 100 µM; in the assay on M14 melanoma, over 100 µM; in the assay with MOLT-4 leukemia, 68.7 µM. Also, the TGI in the assay with NCI-H23 lung, in the assay with TK-10 renal and with SF-268 CNS was over 100 µM in each case.
`CCOC(=O)C(=O)Nc1c(C)cccc1C`: the TGI in the assay with SN12C renal, in the assay with NCI-H226 lung, in the assay on HOP-92 NSCLC, in the assay with MALME-3M melanoma, in the assay with OVCAR-8 ovarian and with M14 melanoma was over 100 µM each time. In addition, the TGI in the assay on NCI-H23 lung, with TK-10 renal and in the assay with SF-268 CNS was over 100 µM throughout.
For the molecule `COc1nc2nccc-2c2occn12`, the concentration for total growth inhibition (TGI) with SN12C renal, in the assay on HOP-92 NSCLC, in the assay on MALME-3M melanoma, with OVCAR-8 ovarian, in the assay with M14 melanoma and in the assay on MOLT-4 leukemia was over 100 µM each time. Further, the TGI in the assay on NCI-H23 lung, in the assay on TK-10 renal and in the assay with SF-268 CNS was over 100 µM each time.
For `NC(=O)N1N=C2c3ccccc3SC[C@H]2[C@@H]1c1ccccc1`, the concentration for total growth inhibition (TGI) is over 100 µM with SN12C renal; 53.2 µM in the assay on NCI-H226 lung; over 100 µM in the assay on MALME-3M melanoma; 65.9 µM with OVCAR-8 ovarian; 77.4 µM with MOLT-4 leukemia; over 100 µM with NCI-H23 lung. In addition, the total growth inhibition concentration (TGI) was 92.6 µM with TK-10 renal and over 100 µM in the assay with SF-268 CNS.
For `C[C@@H]1COCCN1c1cc(C2(S(C)(=N)=O)CC2)nc(-c2ccnc3[nH]ccc23)n1` (stereo partly specified), the GI50 in the assay with SN12C renal is 4.77 µM; with NCI-H226 lung, 3.94 µM; with HOP-92 NSCLC, 2.49 µM; with MALME-3M melanoma, 5.55 µM; in the assay on OVCAR-8 ovarian, 5.41 µM; in the assay on MOLT-4 leukemia it was 2.35 µM. Moreover, the GI50 with NCI-H23 lung was 2.62 µM; in the assay on TK-10 renal it was 8.51 µM; with SF-268 CNS it was 6.17 µM. Moreover, the TGI in the assay on SN12C renal was 89.6 µM; in the assay on NCI-H226 lung, 76.8 µM; with HOP-92 NSCLC, 31.6 µM; in the assay with MALME-3M melanoma, 34 µM; with OVCAR-8 ovarian, 58.5 µM; in the assay on MOLT-4 leukemia, 49.4 µM. Also, the concentration for total growth inhibition (TGI) in the assay on NCI-H23 lung was determined as 34.3 µM; with TK-10 renal, 51 µM; in the assay with SF-268 CNS it was 39.6 µM.
As for `COc1cc(/C=C/C(=O)c2sc(Nc3ccccc3)nc2C)ccc1O`, the concentration for total growth inhibition (TGI) in the assay on SN12C renal, in the assay with HOP-92 NSCLC, in the assay on MALME-3M melanoma, in the assay with OVCAR-8 ovarian, in the assay with MOLT-4 leukemia and with NCI-H23 lung was over 100 µM each time. Moreover, the TGI with TK-10 renal and with SF-268 CNS was over 100 µM each time.
Turning to `CCCCCCCCCCCC[n+]1ccc(CCCCCCCCC)cc1`, the concentration for 50% growth inhibition (GI50) was 0.0968 µM in the assay on HOP-92 NSCLC, 0.39 µM with NCI-H23 lung, 1.35 µM with TK-10 renal and 1.38 µM in the assay with SF-268 CNS. Moreover, the concentration for total growth inhibition (TGI) with HOP-92 NSCLC is 0.944 µM; in the assay on NCI-H23 lung, 1.79 µM; in the assay on TK-10 renal, 2.76 µM; in the assay on SF-268 CNS, 2.94 µM.
In the case of `COC(=O)c1csc(-c2nc(CCNC(=O)OC(C)(C)C)sc2Br)n1`, the TGI in the assay with SN12C renal, in the assay on NCI-H226 lung, with MALME-3M melanoma, with OVCAR-8 ovarian, in the assay with M14 melanoma and in the assay with MOLT-4 leukemia was over 100 µM throughout. For the same molecule, the TGI in the assay with NCI-H23 lung, with TK-10 renal and with SF-268 CNS was over 100 µM in each case.
With `CN(C)c1ccc2cc(-c3ccccc3F)c(N)nc2c1`, the GI50 in the assay with SN12C renal was 4.55 µM; in the assay on NCI-H226 lung, 3.61 µM; in the assay on HOP-92 NSCLC it was 1.4 µM; with MALME-3M melanoma it was 1.71 µM; with OVCAR-8 ovarian it was 3.71 µM; with M14 melanoma, 0.448 µM. Also, the GI50 is 2.89 µM in the assay on NCI-H23 lung, 3.83 µM with TK-10 renal and 3.89 µM in the assay on SF-268 CNS. In addition, the TGI stood at 19.2 µM with SN12C renal; 20.3 µM in the assay on NCI-H226 lung; 9.7 µM in the assay with HOP-92 NSCLC; 15.9 µM in the assay on MALME-3M melanoma; 15.8 µM in the assay on OVCAR-8 ovarian; 4.5 µM in the assay on M14 melanoma. Further, the TGI in the assay on NCI-H23 lung is 15.7 µM; with TK-10 renal, 16.2 µM; in the assay with SF-268 CNS, 19.8 µM.
For the molecule `COc1cc(CNc2ccc(C(C)C)cc2)cc(OC)c1OC`, the TGI in the assay with SN12C renal is 31.4 µM; in the assay on HOP-92 NSCLC it was 50.2 µM; with MALME-3M melanoma, 45.6 µM; with OVCAR-8 ovarian, 73.4 µM; in the assay with MOLT-4 leukemia, 73 µM; in the assay with NCI-H23 lung, 45.5 µM. The TGI with TK-10 renal and in the assay with SF-268 CNS was over 100 µM each time.
